Patent US4596824A, “p-Aminophenol with mucosecretolytic-fluidizing and antipyretic activity, a process for its preparation and pharmaceutical compositions thereof” (Camillo Corvi S.p.A., priority 1984, dated 1986)

Experiments:
[1] = Pharmacokinetics: plasma levels in the rat after oral administration (HPLC); type: in vivo; conditions: Wistar rats, fasted, 400 mg/kg oral single administration, 0.5-6 h
Method: For this study, two groups of Wistar rats (170 280 g), fasting about 15 hours before treatment, are utilized. The animals were allowed to drink an aqueous 10% glucose solution. To the rats, the compound of formula I, by oral way (transoesophageal intubation) is administered at the dose of 400 mg/kg (a single administration) and at 0.5 h; 1 h; 1.5 h; 2 h; 3 h; 4 h; 6 h from administration, 5 rats/time are sacrificed. The blood, as collected into test tubes containing sodium heparin, is centrifuged and the plasma so obtained is utilized for quantitative analysis of the compound of formula (I) of the invention by means of high pressure liquid chromatography (HPLC) with an U.V. detector.

[2] = system: bronchial mucus of bronchitic rabbits; assay: Fluidizing "in vivo" activity: viscosity of bronchial mucus of bronchitic rabbits; set-up: species or system rabbit (male, bronchitic by sulphuric acid aerosol); conditions: for Fluidizing "in vivo" activity of bronchial mucus: bronchitic rabbits, oral, relative activity, d,l-trans-sobrerol taken equal to 100
Method: The viscosity of the mucus as withdrawn is studied by using a Contraves RM16 microviscosimeter and it is recorded by a Rheomat 15 T-FC apparatus.

[3] = system: bronchial secretion (mucoproduction); assay: Bronchosecretagogue activity (mucoproduction) in the rabbit; type: in vivo, rabbit (male brown); conditions: oral, relative activity, d,l-trans-sobrerol taken equal to 100
Method: Method of mucoproduction in the rabbit according to Scuri R. et al Boll. Chem. Farm.
Male brown rabbits weighing 2.8-3.5 kg are used. To said animals, by a surgical operation under anaesthesia, a T shaped tracheal cannula is applied, as described in the above bibliographic reference.
To the cannula, a container (a polypropylene 2 ml test tube) is applied for periodical collection of the bronchial secretion. The study of mucoproduction, started at the fourth day after the operation, is divided into two 4 hour periods for collecting and measuring the mucus, and precisely from 8:30 to 12:30 (I), and from 12:30 to 16:30 (II).
The activity of each drug is tested by administering the same by oesophageal way (os) at the beginning of the II period and by evaluating the percent increase of mucoproduction (weight of the mucus as collected) in the II period as compared with the I period.

[4] = system: rectal temperature, dry yeast-induced fever; assay: Antipyretic activity in the rat (dry yeast fever); type: in vivo, rat (albino Wistar female); conditions: for Antipyretic activity: rat, oral, temperature index over 4-25 h, relative activity, p-aminophenol taken equal to 100
Method: Method for studying the antipyretic activity in the rat.
Albino Wistar female rats, weighing 100-140g, are utilized. The animals having a rectal, basal temperature from 36° to 37° C. are selected.
The test substances are administered by oral way contemporaneously with the pyretic agent (dry yeast, suspended in water at the 20% concentration; volume administered 15 ml/kg subcutaneously) at groups of 5 animals per dose.
After 4,5,6,7 and 25 hours from the treatment, the rectal temperature of the animals is measured by an Ellab RM6 probe, connected to an Ellab mod. TE-3 thermometer.
The activity of the drugs is evaluated by utilizing a temperature index which is provided by the algebraic sum of the differences in the rectal temperature between the measure values at the various times and the basal value.

in vivo = conditions: mouse, po
Description: Method of studying LD50 in the mouse after a single oral administration.
Thereafter, the animals are fed again (Morini MIL fodder for mice).

| Compound | absorption (course of the plasmatic levels) [1] | Fluidizing "in vivo" activity of bronchial mucus [2] | mucosecretolytic-fluidizing activity ([2]; statement in words, versus activity ascribed to the d,l-trans-sobrerol moiety) | Bronchosecretagogue activity [3] | Antipyretic activity [4] | antipyretic activity compared with paracetamol or any drug of the same therapeutical class ([4]; statement in words) | LD50 at 336 h (in vivo) [mg/kg] |
| --- | --- | --- | --- | --- | --- | --- | --- |
| CC1=CC[C@H](C(C)(C)O)C[C@H]1OC(=O)CCC(=O)Nc1ccc(O)cc1 (relative stereo) [CO/1499, 5-[3-N-[(4-hydroxyphenyl)carboxamido]-1-oxo-propxy]-α,α-4-trimethyl-3-cyclohexene-1-methanol] | quick and good absorption | 120 | potency increase | 131 | 127 | equivalent of a dose of either paracetamol or any drug of the same therapeutical class | 2070 |
| CC1=CC[C@H](C(C)(C)O)C[C@H]1O (relative stereo) [d,l-trans-sobrerol] | – | 100 | – | 100 | 0 | – | 2340 |
| Nc1ccc(O)cc1 [p-aminophenol] | – | 0 | – | 0 | 100 | – | – |
